What was measured:
[1] = Stability study at 25° C./60% RH, 40° C./75% RH and 60° C. (XRPD, HPLC purity, impurity tracking); conditions: for Total Impurities / RRT 0.801 / RRT 1.000 (HBI-3808) / RRT 1.025 (Isomer of HBI-3808) / RRT 1.935 / RRT 0.970 / RRT 1.767: impurity tracking
Source text: Stability of HBI-3808 Sodium Salt Pattern 2 was studied over 13 weeks.
Table 2F presents impurity tracking results from a 13-week stability study of HBI-3808 sodium salt of Pattern 2. […]

[2] = Salt disproportionation study (slurry in water, XRPD of solids, pH of mother liquor); assay type: physicochemical; conditions: for XRPD of recovered solids: ca. 24 h at 25° C.
Protocol: The pH of the filtered mother liquor was 9.77.
Salt disproportionation studies of ethanolamine salt. […] The pH of the filtered mother liquor was 8.65.
Method: 40 mg of sodium salt of HBI-3808 having a XRPD of Pattern 2, was weighed into a 2 mL push cap vial and a stirrer bar added. 0.2 mL of water was added to the vial and the experiment was stirred for ca. 24 h at 25° C. After 24 h the slurry was filtered by centrifuge filtration and the recovered solids were analyzed by XRPD. The pH of the filtered mother liquor was measured.

**Q.** With `CC1CCC2(C(=O)[O-])CCC3(C)C(=CCC4C5(C)CC(O)C(O)C(C)(CO)C5CCC43C)C2C1(C)O.[Na+]` (stereo not shown) [HBI-3808 sodium salt of Pattern 2, sodium salt of 23-hydroxytormentic acid] as the compound, how does the “Total Impurities” value ([1]; 25° C./60% RH, 8 weeks) read?
**A.** 3.01 % area

**Q.** And the “RRT 0.801” value ([1]; 25° C./60% RH, 13 weeks)?
**A.** 0.12 % area

**Q.** And the “RRT 1.000 (HBI-3808)” value ([1]; 25° C./60% RH, 13 weeks)?
**A.** 97.33 % area

**Q.** And the “RRT 1.025 (Isomer of HBI-3808)” value ([1]; 25° C./60% RH, 13 weeks)?
**A.** 2.37 % area

**Q.** And the “RRT 1.935” value ([1]; 25° C./60% RH, 13 weeks)?
**A.** 0.19 % area

**Q.** And the “Total Impurities” value ([1]; 25° C./60% RH, 13 weeks)?
**A.** 2.67 % area

**Q.** What about the “RRT 0.801” value ([1]; 40° C./75% RH, 1 week) of the same compound?
**A.** 0.10 % area

**Q.** What about the “RRT 0.970” value ([1]; 40° C./75% RH, 1 week) of the same compound?
**A.** 0.14 % area

**Q.** What about the “RRT 1.000 (HBI-3808)” value ([1]; 40° C./75% RH, 1 week) of the same compound?
**A.** 97.28 % area

**Q.** And the “RRT 1.025 (Isomer of HBI-3808)” value ([1]; 40° C./75% RH, 1 week)?
**A.** 2.48 % area

**Q.** What about the “Total Impurities” value ([1]; 40° C./75% RH, 1 week) of the same compound?
**A.** 2.72 % area

**Q.** What about the “RRT 0.970” value ([1]; 40° C./75% RH, 2 weeks) of the same compound?
**A.** 0.12 % area

**Q.** What about the “RRT 1.000 (HBI-3808)” value ([1]; 40° C./75% RH, 2 weeks) of the same compound?
**A.** 97.26 % area

**Q.** What about the “RRT 1.025 (Isomer of HBI-3808)” value ([1]; 40° C./75% RH, 2 weeks) of the same compound?
**A.** 2.40 % area

**Q.** What about the “RRT 1.935” value ([1]; 40° C./75% RH, 2 weeks) of the same compound?
**A.** 0.22 % area

**Q.** And the “Total Impurities” value ([1]; 40° C./75% RH, 2 weeks)?
**A.** 2.74 % area

**Q.** What about the “RRT 0.970” value ([1]; 40° C./75% RH, 4 weeks) of the same compound?
**A.** 0.11 % area

**Q.** What about the RRT 1.000 (HBI-3808) ([1]; 40° C./75% RH, 4 weeks) of the same compound?
**A.** 97.5 % area

**Q.** What about the “RRT 1.025 (Isomer of HBI-3808)” value ([1]; 40° C./75% RH, 4 weeks) of the same compound?
**A.** 2.41 % area

**Q.** What about the “Total Impurities” value ([1]; 40° C./75% RH, 4 weeks) of the same compound?
**A.** 2.52 % area

**Q.** And the “RRT 0.970” value ([1]; 40° C./75% RH, 8 weeks)?
**A.** 0.21 % area

**Q.** What about the “RRT 1.000 (HBI-3808)” value ([1]; 40° C./75% RH, 8 weeks) of the same compound?
**A.** 96.88 % area

**Q.** And the “RRT 1.025 (Isomer of HBI-3808)” value ([1]; 40° C./75% RH, 8 weeks)?
**A.** 2.51 % area

**Q.** What about the “RRT 1.767” value ([1]; 40° C./75% RH, 8 weeks) of the same compound?
**A.** 0.40 % area

**Q.** And the “Total Impurities” value ([1]; 40° C./75% RH, 8 weeks)?
**A.** 3.12 % area

**Q.** And the “RRT 1.000 (HBI-3808)” value ([1]; 40° C./75% RH, 13 weeks)?
**A.** 97.41 % area

**Q.** And the “RRT 1.025 (Isomer of HBI-3808)” value ([1]; 40° C./75% RH, 13 weeks)?
**A.** 2.40 % area

**Q.** What about the “RRT 1.935” value ([1]; 40° C./75% RH, 13 weeks) of the same compound?
**A.** 0.20 % area

**Q.** And the “Total Impurities” value ([1]; 40° C./75% RH, 13 weeks)?
**A.** 2.59 % area

**Q.** And the “RRT 0.801” value ([1]; 60° C., 1 week)?
**A.** 0.12 % area

**Q.** And the “RRT 1.000 (HBI-3808)” value ([1]; 60° C., 1 week)?
**A.** 97.46 % area

**Q.** And the “RRT 1.025 (Isomer of HBI-3808)” value ([1]; 60° C., 1 week)?
**A.** 2.43 % area

**Q.** And the “Total Impurities” value ([1]; 60° C., 1 week)?
**A.** 2.54 % area

**Q.** What about the “RRT 0.970” value ([1]; 60° C., 2 weeks) of the same compound?
**A.** 0.12 % area

**Q.** And the “RRT 1.000 (HBI-3808)” value ([1]; 60° C., 2 weeks)?
**A.** 97.27 % area

**Q.** And the “RRT 1.025 (Isomer of HBI-3808)” value ([1]; 60° C., 2 weeks)?
**A.** 2.41 % area

**Q.** And the “RRT 1.935” value ([1]; 60° C., 2 weeks)?
**A.** 0.20 % area

**Q.** And the “Total Impurities” value ([1]; 60° C., 2 weeks)?
**A.** 2.73 % area

**Q.** What about the “RRT 0.970” value ([1]; 60° C., 4 weeks) of the same compound?
**A.** 0.11 % area

**Q.** What about the “RRT 1.000 (HBI-3808)” value ([1]; 60° C., 4 weeks) of the same compound?
**A.** 97.49 % area

**Q.** And the “RRT 1.025 (Isomer of HBI-3808)” value ([1]; 60° C., 4 weeks)?
**A.** 2.40 % area

**Q.** And the “Total Impurities” value ([1]; 60° C., 4 weeks)?
**A.** 2.51 % area

**Q.** What about the “RRT 0.970” value ([1]; 60° C., 8 weeks) of the same compound?
**A.** 0.12 % area

**Q.** What about the “RRT 1.000 (HBI-3808)” value ([1]; 60° C., 8 weeks) of the same compound?
**A.** 97.04 % area

**Q.** And the “RRT 1.025 (Isomer of HBI-3808)” value ([1]; 60° C., 8 weeks)?
**A.** 2.49 % area

**Q.** And the “RRT 1.767” value ([1]; 60° C., 8 weeks)?
**A.** 0.35 % area

**Q.** And the “Total Impurities” value ([1]; 60° C., 8 weeks)?
**A.** 2.96 % area

**Q.** What about the “RRT 1.000 (HBI-3808)” value ([1]; 60° C., 13 weeks) of the same compound?
**A.** 97.41 % area

**Q.** What about the “RRT 1.025 (Isomer of HBI-3808)” value ([1]; 60° C., 13 weeks) of the same compound?
**A.** 2.41 % area

**Q.** And the “RRT 1.935” value ([1]; 60° C., 13 weeks)?
**A.** 0.18 % area

**Q.** And the “Total Impurities” value ([1]; 60° C., 13 weeks)?
**A.** 2.59 % area

**Q.** What about the “RRT 1.000 (HBI-3808)” value ([1]; T = 0) of the same compound?
**A.** 97.82 % area

**Q.** And the “RRT 1.025 (Isomer of HBI-3808)” value ([1]; T = 0)?
**A.** 2.18 % area

**Q.** What about the “Total Impurities” value ([1]; T = 0) of the same compound?
**A.** 2.18 % area

**Q.** What about the “input purity by HPLC” value ([1]; input material of the stability study (baseline)) of the same compound?
**A.** 97.2 % area

**Q.** And the “pH of the filtered mother liquor” value [2]?
**A.** 9.77

**Q.** And the “XRPD of recovered solids” value [2]?
**A.** consistent with HBI-3808 sodium salt of Pattern 5

**Q.** And the “XRPD of recovered solids” value ([2]; listed as sodium salt of HBI-3808 having a XRPD of Pattern 2)?
**A.** consistent with sodium salt of HBI-3808 having a XRPD of pattern 5
